The test system of data set [1] is Trypanosoma brucei rhodesiense (Tbr) (STIB 900 strain) trypomastigotes. Description: in vitro activity against Trypanosoma brucei rhodesiense bloodstream trypomastigotes. The class given is cell-based. To be noted: for IC50: Trypanosoma brucei, read-out: Tbr IC50; for SI (selectivity index): cytotoxicity L6 IC50 versus Tbr IC50. The procedure: (§1) The dichloromethane (CH2Cl2) extract obtained from leaves of V. cinerascens was tested for in vitro antiprotozoal activity against Trypanosoma brucei rhodesiense (Tbr) (STIB 900 strain) trypomastigotes, T. cruzi (Tcr) (Tulahuen C4 strain) amastigotes, Leishmania donovani (Ldon) (MHOM-ET-67/L82 strain) axenic amastigotes, and Plasmodium falciparum (Pf) (NF54 strain) intra-erythrocytic forms. It was also evaluated for in vitro cytotoxicity against mammalian cells, specifically the rat-skeletal myoblast cell line L6. […] Therefore, the CH2Cl2 extract was fractionated by silica gel column chromatography and representative fractions were subjected to bioactivity testing against Tbr (STIB 900 strain) trypomastigotes.
(§2) In vitro bioactivity tests were performed as previously described against Tbr (bloodstream trypomastigotes, STIB 900 strain), Tcr (amastigotes, Tulahuen C4 strain), Ldon (axenic amastigotes, MHOM-ET-67/L82 strain), and Pf (intraerythrocytic forms, NF54 strain), and the cytotoxicity test was conducted against mammalian cells (L6 cell line from rat-skeletal myoblasts) at the Swiss Tropical and Public Health Institute (Swiss TPH, Basel, Switzerland).

A short description of data set [2]: in vitro cytotoxicity against mammalian cells (L6). It counts as cell-based, rat. The procedure:
as §1, §2

Data set [3] relates to Trypanosoma brucei rhodesiense (Tbr) (STIB 900 strain) trypomastigotes. On the set-up: method as in PMID 28397756. Particulars: isolated from V. lasiopus in previous study; read-out: in vitro antiTbr activity IC50; cited from earlier work.
[4] abbreviates: bloodstream trypomastigotes, STIB 900 strain, means of two independent determinations ± absolute deviation.
Setting [5] is: L6 cell line from rat-skeletal myoblasts, means of two independent determinations ± absolute deviation, read-out: Cytotoxicity IC50.

Like-named read-outs stand apart in the source and are kept apart here.

By IC50 is commonly meant the midpoint of a concentration-inhibition curve.

As for `C=C[C@@]12COC(=O)C(=C)[C@@H]1[C@H]1OC(=O)C(=C)[C@@H]1[C@@H](OC(=O)C(=C)CO)C2` [Compound 2, vernodalin], the IC50 in data set [1] (setting [4]) is 0.16 ± 0.04 µM; in data set [2] (rat) it was 5.6 µM. Also, the “SI (selectivity index)” value in data set [1] was 35.

On to `C=C[C@@]12COC(=O)C(=C)[C@@H]1[C@H]1OC(=O)[C@@H](C)[C@@H]1[C@@H](OC(=O)C(=C)CO)C2` [Compound 3, 11β,13-dihydrovernodalin], for which the IC50 in data set [1] (setting [4]) amounted to 1.1 ± 0.3 µM; in data set [2] (rat), 4.7 ± 0.4 µM. For the same compound, the “SI (selectivity index)” value in data set [1] came to 4.2.

Regarding `C=C(C)C(=O)OC1CC23OC2CCC(=CC2OC(=O)C(C)C21)COC3O` (stereo not drawn) [Compound 4, 11β,13-dihydrovernolide], the IC50 in data set [1] (setting [4]) was found to be 17 µM; in data set [2] (setting [5]) it was 13 ± 2 µM. Besides, the “SI (selectivity index)” value in data set [1] worked out at 0.8.

On to `C=C(C)C(=O)OC1CC23OC2CCC(=CC2OC(=O)C(=C)C21)COC3O` (stereo not drawn) [Compound 5, vernolide], for which the IC50 in data set [1] (setting [4]) worked out at 0.5 ± 0.01 µM; in data set [2] (setting [5]) it was 6.9 µM. Moreover, the “SI (selectivity index)” value in data set [1] was found to be 13.

Consider `C=C(CO)C(=O)OC1CC23OC2CCC(=CC2OC(=O)C(C)C21)COC3O` (stereo not drawn) [Compound 6, 11β,13-dihydrohydroxyvernolide], for which the half-maximal inhibitory concentration (IC50) in data set [1] (setting [4]) was found to be 15 µM; in data set [2] (rat) it was 49 ± 1 µM. Also, in data set [1], the “SI (selectivity index)” value is 3.2.

With `C=C(CO)C(=O)OC1CC23OC2CCC(=CC2OC(=O)C(=C)C21)COC3O` (stereo not drawn) [Compound 7, hydroxyvernolide], the IC50 in data set [1] (setting [4]) is 5 µM; in data set [2] (rat), 22 ± 1 µM. Besides, in data set [1], the “SI (selectivity index)” value came to 4.3.

Consider `C=C(CO)C(=O)O[C@H]1C[C@@]2(CO)O[C@@H]2CC/C(C=O)=C/[C@H]2OC(=O)C(=C)[C@H]12` [Compound 8, vernocinerascolide], for which the IC50 amounted to 4.8 ± 1.1 µM in data set [1] (setting [4]) and 128 ± 1 µM in data set [2] (rat). The “SI (selectivity index)” value in data set [1] turned out to be 27.

Turning to `Nc1nc(N)nc(Nc2ccc([As]3SCC(CO)S3)cc2)n1` (stereo not drawn) [melarsoprol, reference compound], the IC50 in data set [1] is 0.003 ± 0.001 µM.

For the compound `COc1cc([C@@H]2c3cc4c(cc3[C@H](O)[C@H]3COC(=O)[C@H]23)OCO4)cc(OC)c1OC` [podophyllotoxin, reference compound], in data set [2] (setting [5]), the IC50 is 0.007 ± 0.001 µM.

Take vernodalol [Compound 1]: the IC50 in data set [3] is 0.26 µM.

Values taken from article PMC6017816, “Sesquiterpene Lactones from Vernonia cinerascens Sch. Bip. and Their in Vitro Antitrypanosomal Activity” (Molecules : A Journal of Synthetic Chemistry and Natural …, 2018).
